# Measured values: patent publication US10988465B2, “CXCR4 inhibitors and uses thereof” (X4 Pharmaceuticals, Inc., priority 2016, dated 2021)
# Key:
# [1] = molecular target: T1, Jurkat cells expressing CXCR4 (Homo sapiens, UniProt P61073); test: Chemokine (CXCL12-AF647) binding inhibition assay; details: CXCL12-AF647 25 ng/mL, read-out: IC50 CXCL-12 binding Jurkat
# T1 construct: endogenous in cells; host or cells: Jurkat
# In short: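 Cells in HBSS, 20 mM HEPES, 0.2% BSA, pH 7.4, preincubated 15 min at room temperature with compound, then 25 ng/mL CXCL12-AF647 for 30 min. After washing and paraformaldehyde fixation, bound ligand read by flow cytometry; percent inhibition calculated from MFI relative to unlabeled and ligand-only controls.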
# in vitro = details: human, Caco-2, pH 7.4
# In short: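 Bidirectional permeability across Caco-2 monolayers in HBSS (pH 7.4) at a test concentration of 10 μM, incubated 0 and 90 min at 37° C (n=2). Monolayer integrity was assessed by TEER and Lucifer yellow. Papp was derived from LC-MS/MS-measured concentrations.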
# [2] = molecular target: T2, CXCR-4 transfected U87 cell line (U87.CXCR4) (Homo sapiens, UniProt P61073); test: Intracellular CXCL-12-induced calcium mobilization assay (FLIPR); assay type: cell-based; details: U87.CXCR4 cells; CXCL-12 25-50 ng/mL; compound added 15 min before; read-out: IC50 CXCL-12 Ca^2+ flux U87.CXCR4+
# T2 construct: expressed in transfected cells; host or cells: U87 (U87.CXCR4)
# In short: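 CXCL-12 (25-50 ng/mL) was the stimulus, and the intracellular calcium rise was tracked kinetically by FLIPR at 37 °C. Cells were U87.CXCR4 transfectants pre-loaded 45 min at 37 °C with 4 μM (final) Fluo-2 AM in HEPES-buffered HBSS with 0.2% BSA, pH 7.4.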
# T1 sequence (P61073 whole entry): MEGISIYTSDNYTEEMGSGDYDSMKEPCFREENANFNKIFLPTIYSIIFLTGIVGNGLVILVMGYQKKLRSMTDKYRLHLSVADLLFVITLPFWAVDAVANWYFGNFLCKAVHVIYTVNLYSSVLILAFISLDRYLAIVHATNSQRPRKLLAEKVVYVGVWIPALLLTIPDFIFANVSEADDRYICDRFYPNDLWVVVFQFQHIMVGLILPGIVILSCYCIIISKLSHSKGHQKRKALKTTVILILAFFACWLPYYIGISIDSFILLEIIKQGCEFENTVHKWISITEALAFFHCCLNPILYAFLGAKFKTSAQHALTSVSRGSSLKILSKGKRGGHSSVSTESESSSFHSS
# T2 sequence (P61073 whole entry): as above
Structure (SMILES),IC50 [1],"Papp A→B at 90 min, 10 μM (in vitro)","Papp B→A at 90 min, 10 μM (in vitro)","efflux ratio at 90 min, 10 μM (in vitro)",IC50 [2]
"Cc1cccnc1[C@@H]1CCC[C@H](c2nc3ccccc3n2CCCN)N1C [I-2, 3-(2-((2R,6S)-1-methyl-6-(3-methylpyridin-2-yl)piperidin-2-yl)-1H-benzo[d]imidazol-1-yl)propan-1-amine]",0.01 to 100 nM,0.1 to 10 ×10⁻⁶ cm/s,10 to 30 ×10⁻⁶ cm/s,> 30,0.01 to 100 nM
"Cc1cccnc1[C@@H]1CCC[C@H](c2nc3ccccc3[nH]2)N1Cc1ccccc1-n1cccn1 [I-21, 2-((2R,6S)-1-(2-(1H-pyrazol-1-yl)benzyl)-6-(3-methylpyridin-2-yl)piperidin-2-yl)-1H-benzo[d]imidazole]",0.01 to 100 nM,10 to 30 ×10⁻⁶ cm/s,10 to 30 ×10⁻⁶ cm/s,0.1 to 10,0.01 to 100 nM
Cc1cccnc1[C@@H]1CCC[C@H](c2nc3cccc(N4CCN(C5CC5)CC4)c3[nH]2)N1 [I-125],0.01 to 100 nM,10 to 30 ×10⁻⁶ cm/s,10 to 30 ×10⁻⁶ cm/s,0.1 to 10,0.01 to 100 nM
Cc1cccnc1[C@@H]1CCC[C@H](c2nccn2C2CCN(C)CC2)N1 [I-171],0.01 to 100 nM,0.1 to 10 ×10⁻⁶ cm/s,10 to 30 ×10⁻⁶ cm/s,0.1 to 10,≥ 1000 nM
[2H]C([2H])([2H])N1[C@@H](c2nc3cccc(N4CCN(C)CC4)c3[nH]2)CCC[C@H]1c1ncccc1C [I-112],0.01 to 100 nM,10 to 30 ×10⁻⁶ cm/s,10 to 30 ×10⁻⁶ cm/s,–,0.01 to 100 nM
Cc1ccnnc1[C@@H]1CCC[C@H](c2nc3cccc(N4CCN(C)CC4)c3[nH]2)N1C [I-84],100 to 1000 nM,0.1 to 10 ×10⁻⁶ cm/s,10 to 30 ×10⁻⁶ cm/s,10 to 30,≥ 1000 nM
"Cc1cccnc1[C@@H]1CCC[C@H](c2nc3ccccc3n2CCCNC2CCOCC2)N1C [I-19, N-(3-(2-((2R,6S)-1-methyl-6-(3-methylpyridin-2-yl)piperidin-2-yl)-1H-benzo[d]imidazol-1-yl)propyl)tetrahydro-2H-pyran-4-amine]",0.01 to 100 nM,0.1 to 10 ×10⁻⁶ cm/s,10 to 30 ×10⁻⁶ cm/s,0.1 to 10,0.01 to 100 nM
CN1CCN(c2cccc3nc([C@H]4CCC[C@@H](c5nccn6cccc56)N4C)[nH]c23)CC1 (stereo in doubt) [I-90],0.01 to 100 nM,10 to 30 ×10⁻⁶ cm/s,10 to 30 ×10⁻⁶ cm/s,0.1 to 10,100 to 1000 nM
Cc1cccnc1[C@@H]1CCC[C@H](c2nc3ccccc3n2CCCCN2CCOCC2)N1C [I-39],100 to 1000 nM,10 to 30 ×10⁻⁶ cm/s,10 to 30 ×10⁻⁶ cm/s,0.1 to 10,≥ 1000 nM
CN1CCN(c2cccc3nc([C@H]4CCC[C@@H](c5nccc6c5OCCO6)N4C)[nH]c23)CC1 [I-65],100 to 1000 nM,10 to 30 ×10⁻⁶ cm/s,10 to 30 ×10⁻⁶ cm/s,0.1 to 10,100 to 1000 nM
Cc1cccnc1[C@@H]1CCC[C@H](c2nc3cccc(N4CC5CCC(C4)N5)c3[nH]2)N1C [I-98],0.01 to 100 nM,0.1 to 10 ×10⁻⁶ cm/s,10 to 30 ×10⁻⁶ cm/s,> 30,0.01 to 100 nM
Cc1cc(F)cnc1[C@@H]1CCC[C@H](c2nccn2C2CCN(C)CC2)N1 [I-173],≥ 1000 nM,10 to 30 ×10⁻⁶ cm/s,10 to 30 ×10⁻⁶ cm/s,0.1 to 10,≥ 1000 nM
Cc1cccnc1[C@@H]1CCC[C@H](c2nc3ccccc3n2CCCCN(C)C)N1C [I-38],0.01 to 100 nM,0.1 to 10 ×10⁻⁶ cm/s,10 to 30 ×10⁻⁶ cm/s,0.1 to 10,100 to 1000 nM
Cc1ccnc([C@@H]2CCC[C@H](c3nc4cccc(N5CCN(C)CC5)c4[nH]3)N2C)c1Cl [I-116],0.01 to 100 nM,10 to 30 ×10⁻⁶ cm/s,10 to 30 ×10⁻⁶ cm/s,0.1 to 10,100 to 1000 nM
Cc1cccnc1[C@@H]1CCC[C@H](c2nc3ccccc3[nH]2)N1CCc1cn2ccccc2n1 [I-164],0.01 to 100 nM,0.1 to 10 ×10⁻⁶ cm/s,10 to 30 ×10⁻⁶ cm/s,0.1 to 10,0.01 to 100 nM
CN1[C@@H](c2nc3cccc(N4CCN5CCCC5C4)c3[nH]2)CCC[C@H]1c1ncccc1Cl (some centres unmarked) [I-150],0.01 to 100 nM,10 to 30 ×10⁻⁶ cm/s,10 to 30 ×10⁻⁶ cm/s,0.1 to 10,0.01 to 100 nM
CCN1CCN(c2cccc3nc([C@H]4CCC[C@@H](c5ncccc5C)N4C)[nH]c23)CC1 [I-74],0.01 to 100 nM,10 to 30 ×10⁻⁶ cm/s,10 to 30 ×10⁻⁶ cm/s,0.1 to 10,0.01 to 100 nM
CN1CCN(c2cccc3nc([C@H]4CCC[C@@H](c5ncccc5C5CC5)N4C)[nH]c23)CC1 (stereo in doubt) [I-61],0.01 to 100 nM,10 to 30 ×10⁻⁶ cm/s,10 to 30 ×10⁻⁶ cm/s,0.1 to 10,0.01 to 100 nM
Cc1ccnc([C@@H]2CCC[C@H](c3nc4cccc(N5CCN(C)CC5)c4[nH]3)N2C)c1C [I-115],0.01 to 100 nM,0.1 to 10 ×10⁻⁶ cm/s,0.1 to 10 ×10⁻⁶ cm/s,0.1 to 10,100 to 1000 nM
CN1CCN(c2cccc3nc([C@H]4CCC[C@@H](c5ncn6ccccc56)N4C)[nH]c23)CC1 [I-93],100 to 1000 nM,10 to 30 ×10⁻⁶ cm/s,10 to 30 ×10⁻⁶ cm/s,0.1 to 10,≥ 1000 nM
"Cc1cccnc1[C@@H]1CCC[C@H](c2nc3ccccc3n2CC2CCNCC2)N1C [I-14, 2-((2R,6S)-1-methyl-6-(3-methylpyridin-2-yl)piperidin-2-yl)-1-(piperidin-4-ylmethyl)-1H-benzo[d]imidazole]",0.01 to 100 nM,0.1 to 10 ×10⁻⁶ cm/s,10 to 30 ×10⁻⁶ cm/s,> 30,0.01 to 100 nM
Cc1cccnc1[C@@H]1CCC[C@H](c2nccn2C2CCN(C)CC2)N1C [I-168],0.01 to 100 nM,0.1 to 10 ×10⁻⁶ cm/s,10 to 30 ×10⁻⁶ cm/s,0.1 to 10,0.01 to 100 nM
Cc1cccnc1[C@@H]1CCC[C@H](c2nc3ccccc3n2CC2CCN(C)CC2)N1CC(F)(F)F [I-26],≥ 1000 nM,10 to 30 ×10⁻⁶ cm/s,10 to 30 ×10⁻⁶ cm/s,0.1 to 10,≥ 1000 nM
Cc1cccnc1[C@@H]1CCC[C@H](c2nc3cccc(N4CCN(C)C(C)C4)c3[nH]2)N1C (some centres unmarked) [I-53],0.01 to 100 nM,10 to 30 ×10⁻⁶ cm/s,10 to 30 ×10⁻⁶ cm/s,0.1 to 10,0.01 to 100 nM
